From US20070059788A1, “Method and apparatus for electrically detecting an adverse effect of a toxic substance on procaryotic cells” (priority 2005, published 2007)

Key:
Assay type in all cases: cell-based
[1] = test system: E. coli BL21 cells; assay: optical detection of cell membrane potential (Baclight Bacterial Membrane Potential Kit)
Procedure: (§1) The optical detection method was performed using a Baclight™ Bacterial Membrane Potential Kit (commercially available from by Molecular Probes Inc., U.S.A.) for verification.

[2] = test system: E. coli BL21 cells; assay: impedance (E′, E″) measurement of cells immobilized on an interdigit electrode chip
Procedure: After a suspension of E. coli BL21 cells (1×10^10 ells) was mixed with 1 ml of 1.5% agarose, 1 ul of the resulting mixture was laid and immobilized on the surface of a positive dielectrophoresis (“DEP”) 0 chip.
Subsequently, the cells-immobilized chip was soaked in 10 ml of 1 μM KCl solution and its initial dielectric permittivity (E′) and dielectric losses (E″) were measured. […] The chip was then taken out of the 10 ml of 1 μM KCl solution and washed with 1 μM KCl solution three times. After soaking the chip in 10 ml of 1 μM KCl solution, dielectric permittivity (E′) and dielectric losses (E″) were measured.
Control 2 is a case of treating only 1 μM KCl solution to the chip immobilized with E. coli cells, which represents the noise of prokaryotic cells themselves that varies with the passage of time.
In FIGS. 2A to 2C, Line b represents an initial impedance value measured after the cell immobilization, and Line a represents an impedance value measured after treating with a toxic substance or 1 μM KCl solution.

[3] = test system: E. coli BL21 cells; assay: colony counting of the cells-immobilized chip
Procedure: as §1

Compound | reduction in the cell membrane potential measured by the optical method ([1]; 20% ethanol, compared with untreated control (FIG. 6)) | reduction in the cell membrane's impedance (E′) signal ([2]; 20% ethanol (FIG. 2C)) | adverse effect by colony counting ([3]; 20% ethanol) | reduction of cell membrane potential ([1]; 5 μM CCCP, compared with untreated control (FIG. 5B)) [%] | reduction of impedance signal (E″) of the cell membrane ([2]; 5 μM CCCP, compared with the untreated control (FIG. 4C)) | change in E′ and E″ signals over the initial impedance value ([2]; 5 μM CCCP, same method as Example 1) | adverse effect by colony counting ([3]; 5 μM CCCP versus untreated control (FIG. 5A))
CCO [ethanol] | almost nothing | about 36% | difficult to measure an adverse effect | – | – | – | –
carbonyl cyanide m-chloropheoxyhydrazone [CCCP] | – | – | – | 10 | about 32% | significant reduction | difficult to measure an adverse effect
